The target of assay [1] is T1, HpaBC (Escherichia coli, UniProt Q57160).
T1 construct: gene hpaB; HpaB and HpaC purified on Ni-NTA; two-component flavin-dependent monooxygenase; with 4-hydroxyphenylacetate 3-monooxygenase reductase component
T1 sequence (Q57160 1-520): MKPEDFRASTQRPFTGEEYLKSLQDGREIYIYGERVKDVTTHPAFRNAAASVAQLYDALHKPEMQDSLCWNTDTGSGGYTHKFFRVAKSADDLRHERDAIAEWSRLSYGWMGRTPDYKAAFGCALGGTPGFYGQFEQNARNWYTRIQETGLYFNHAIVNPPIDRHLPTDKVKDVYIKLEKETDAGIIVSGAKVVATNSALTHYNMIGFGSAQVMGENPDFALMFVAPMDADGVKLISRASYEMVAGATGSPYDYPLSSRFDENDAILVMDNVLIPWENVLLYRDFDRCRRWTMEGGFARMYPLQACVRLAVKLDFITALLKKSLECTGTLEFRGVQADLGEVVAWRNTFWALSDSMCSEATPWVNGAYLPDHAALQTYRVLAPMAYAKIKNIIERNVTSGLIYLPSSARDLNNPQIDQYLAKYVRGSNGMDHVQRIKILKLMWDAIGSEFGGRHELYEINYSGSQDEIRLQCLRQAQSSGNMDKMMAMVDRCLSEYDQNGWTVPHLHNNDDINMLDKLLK
The experiment in a line: specific activity, product formation by HPLC. Particulars: wild-type. The assay is classed as biochemical.

The target in assay [2] is T2, VanR (Corynebacterium glutamicum, UniProt Q8NN31, R148L/Y103L/Y168M).
T2 construct: gene Cgl2382; full length; GST fusion from pGEX-6p-1 in E. coli BL21(DE3), GST tag cleaved with PreScission protease; homodimer, ligand pocket at subunit interface
Description: RFP reporter induction in E. coli BW25113 with plasmid pVanR. The assay is classed as cell-based.

In assay [3] the target is T3, VanR (Corynebacterium glutamicum, UniProt Q8NN31).
T3 construct: gene Cgl2382; full length; GST fusion from pGEX-6p-1 in E. coli BL21(DE3), GST tag cleaved with PreScission protease; homodimer, ligand pocket at subunit interface
Description: isothermal titration calorimetry. The assay is classed as binding.

Each structure is given as a SMILES string.

T2 sequence (Q8NN31 entry or part of it Y103L/R148L/Y168M): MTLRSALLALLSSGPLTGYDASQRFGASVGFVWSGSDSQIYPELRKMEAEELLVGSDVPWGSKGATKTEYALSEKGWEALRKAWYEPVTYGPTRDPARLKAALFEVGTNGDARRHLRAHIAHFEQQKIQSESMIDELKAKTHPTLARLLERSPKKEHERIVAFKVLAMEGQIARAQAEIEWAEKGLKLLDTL
T3 sequence (Q8NN31 entry or part of it): as the sequence (Q8NN31 entry or part of it Y103L/R148L/Y168M) above, with L103Y, L148R, M168Y counted along it

On to `O=C(O)Cc1ccc(O)cc1` [4-hydroxyphenylacetate], for which the specific activity entry in assay [1] is “the hydroxylation activity of these HpaBC mutants on the original substrate 4-HPA reduced considerably”.
As for `OCCc1ccc(O)c(O)c1` [hydroxytyrosol], the EC50 (usually the midpoint of the concentration-response curve) in assay [2] was ~500 µM.
Take `COc1cc(C(=O)O)ccc1O` [vanillic acid]: in assay [3], the Kd (in general, the equilibrium constant for the complex coming apart) turned out to be 6.99 µM.

For the origin of these results see article PMC7090077, “Developing a highly efficient hydroxytyrosol whole-cell catalyst by de-bottlenecking rate-limiting steps” (Nature Communications, 2020).
